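Grown in 96-well plates, cells were treated for 48 hours with each compound at five concentrations. Insufficient inhibition: endpoint recorded as highest concentration tested. TGI marks complete inhibition of growth.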
Columns and labels:
Assay in all cases: NCI tumour cell line growth inhibition, 48 h
[1] = system: CCRF-CEM leukemia
[2] = system: COLO 205 colon
[3] = system: EKVX NSCLC
[4] = system: HCC-2998 colon
[5] = system: KM12 colon
[6] = system: M14 melanoma
[7] = system: MCF7 breast
[8] = system: MOLT-4 leukemia
[9] = system: NCI-H226 lung
[10] = system: NCI-H460 lung
[11] = system: NCI-H522 lung
[12] = system: OVCAR-4 ovarian
[13] = system: OVCAR-5 ovarian
[14] = system: RPMI-8226 leukemia
[15] = system: SK-MEL-2 melanoma
[16] = system: SK-MEL-28 melanoma
[17] = system: SK-OV-3 ovarian
[18] = system: SN12C renal
[19] = system: SNB-19 CNS
[20] = system: UO-31 renal

Compound | TGI [1] [µM] | TGI [2] [µM] | TGI [3] [µM] | TGI [4] [µM] | TGI [5] [µM] | TGI [6] [µM] | TGI [7] [µM] | TGI [8] [µM] | TGI [9] [µM] | TGI [10] [µM] | TGI [11] [µM] | TGI [12] [µM] | TGI [13] [µM] | TGI [14] [µM] | TGI [15] [µM] | TGI [16] [µM] | TGI [17] [µM] | TGI [18] [µM] | TGI [19] [µM] | TGI [20] [µM]
COc1ccc(-n2c(=O)n(C)c(=O)n2-c2c(C)c(C)c(C)c(C)c2C)cc1 | > 100 | > 100 | > 100 | > 100 | > 100 | > 100 | > 100 | > 100 | > 100 | > 100 | > 100 | > 100 | > 100 | > 100 | > 100 | > 100 | > 100 | > 100 | > 100 | > 100
FC(F)(F)C1(C(F)(F)F)C2CCC3(CC(F)(F)C(F)(F)S3)C1C2 (stereo not given) | 60.9 | 76.3 | 96.6 | > 100 | > 100 | > 100 | 84.3 | 46.4 | > 100 | > 100 | > 100 | > 100 | > 100 | 58.8 | 49.1 | > 100 | > 100 | > 100 | > 100 | 68.3
CC(OCc1ccccc1)C(NC(=O)C1CSSCC(NC(=O)C(Cc2ccccc2)NC(=O)OCc2ccccc2)C(=O)NC(Cc2ccccc2)C(=O)NC(Cc2cn(C=O)c3ccccc23)C(=O)NC(CCCCNC(=O)OCc2ccccc2)C(=O)NC(C(C)OCc2ccccc2)C(=O)N1)C(N)=O (stereo not given) | > 100 | 10.5 | > 100 | > 32.5 | > 55.5 | > 79.1 | 41.1 | > 37.9 | > 100 | > 61.8 | 38.5 | > 79.3 | > 100 | 53.3 | 28.7 | > 100 | > 100 | > 100 | > 100 | > 100
O=C(CCc1cccc(O)c1)NCCc1cccc(OCc2ccccc2)c1 | 42.4 | 38 | 62.2 | 31.7 | 21.3 | 30.2 | 40.4 | 43.5 | 31.5 | 34.5 | 33.4 | 63.6 | 57.9 | > 60.1 | 32.3 | 31.8 | 53.5 | 45.1 | 63.7 | 33.4
Oc1[nH]c2ccccc2c1N=NC(=S)N1CCCC1 | 6.78 | 27.5 | > 65.3 | 23.6 | > 49.5 | 8.44 | > 56.6 | 5.75 | 1.88 | 9.42 | 38.9 | 32.2 | > 82.6 | 9.64 | 33.2 | > 100 | 21.6 | 31.9 | > 43.8 | 11.3
COc1ccc2c(c1)c1c3c(ccc4ncn2c43)N(CCN(C)C)CCN=1 | 1.09 | 1.83 | 2.71 | 1.35 | 1.7 | 2.41 | 1.91 | 1.5 | 2.89 | 0.76 | 0.806 | 1.16 | 2.83 | 2.48 | 2.32 | 2.45 | 4.04 | 1.26 | 1.96 | 1.74
CC(=O)NNc1nc(C)c(C(/C=C/c2ccc(NC(C)=O)cc2)=N/NS(=O)(=O)c2ccc(C)cc2)s1 | > 100 | > 100 | > 100 | > 100 | > 100 | > 100 | > 100 | > 100 | > 100 | > 100 | > 100 | > 100 | > 100 | > 100 | > 100 | > 100 | > 100 | > 100 | > 100 | > 100
O=C1CSC(/C=C/c2ccccc2)N1c1ccc(-n2c(-c3ccccc3)nc3ccccc3c2=O)cc1 (stereo not given) | > 100 | > 100 | > 100 | > 100 | > 100 | > 100 | > 100 | > 100 | > 100 | > 100 | > 100 | 86.2 | > 100 | > 100 | > 100 | > 100 | 69 | > 100 | > 100 | > 100
Cc1cc(=O)[nH]c2c3c(ccc12)OC(C)(C)C=C3 | > 100 | 12.2 | > 63.7 | > 96.1 | > 100 | > 100 | > 100 | > 100 | > 33.6 | > 100 | 67.4 | > 100 | > 66.1 | > 100 | > 100 | > 100 | > 82.9 | > 49.6 | > 67.3 | > 100
Cc1cc2c(=O)[nH]nc(N)c2c(N)n1 | > 100 | > 100 | > 100 | > 100 | > 100 | > 100 | > 100 | > 100 | > 100 | > 100 | > 100 | > 100 | > 100 | > 100 | > 100 | > 100 | > 100 | > 100 | > 100 | > 100
CC(C)(C)OC(=O)N/N=C(/N)c1ccccc1 | > 100 | > 100 | > 100 | > 100 | > 100 | > 100 | > 100 | > 100 | > 100 | > 100 | > 100 | > 100 | > 100 | > 100 | > 100 | > 100 | > 100 | > 100 | > 100 | > 100
NC(N)=NS(=O)(=O)c1ccc(NNc2c3ccccc3nc3c(C(=O)Nc4ccc(S(N)(=O)=O)cc4)cccc23)cc1 | 88.7 | > 100 | > 100 | > 100 | > 100 | > 100 | 70.5 | 70.6 | > 100 | > 100 | > 100 | > 100 | > 100 | > 100 | 46.9 | > 100 | > 100 | > 100 | > 100 | > 100
CCOC(=O)C(Cc1cn(S(=O)(=O)c2ccc(C)cc2)cn1)P(=O)(OCC)OCC (stereo not given) | > 100 | > 100 | > 100 | > 100 | > 100 | > 100 | > 100 | > 100 | > 100 | > 100 | > 100 | > 100 | > 100 | > 100 | > 100 | > 100 | > 100 | > 100 | > 100 | > 100
CC1C(=O)C23OC[C@@]1(C)C1(O)CC[C@@H](C)[C@]21CC3=O (stereo not given in full) | > 100 | > 100 | > 100 | > 100 | > 100 | > 100 | > 100 | > 100 | > 100 | > 100 | > 100 | > 100 | > 100 | > 100 | > 100 | > 100 | > 100 | > 100 | > 100 | > 100
Cc1ccccc1NC(=O)C(=O)Cc1cnc2ccccc2n1 | > 100 | > 100 | > 100 | > 100 | > 100 | > 100 | > 100 | > 100 | > 100 | > 100 | > 100 | > 100 | > 100 | > 100 | > 100 | > 100 | > 100 | > 100 | > 100 | > 100
COc1ccc2c(c1)CC[C@@H]1[C@@H]2CC[C@]2(C)[C@@H](O)/C(=C/c3ccncc3)C[C@@H]12 | 81 | 16 | 70.6 | 23.6 | 31.4 | 30.4 | 30.2 | 26.4 | 44.7 | 27.3 | 30.6 | > 100 | 30.7 | 25.1 | 31.1 | 35.5 | 49.4 | 61.3 | 51.8 | 31.5
O=c1c2ncn(CCCl)c2n(-c2ccccc2)c(=S)n1-c1ccccc1 | > 100 | > 100 | > 100 | > 100 | > 100 | > 100 | > 100 | > 100 | > 100 | > 100 | > 100 | > 100 | > 100 | > 100 | > 100 | > 100 | > 100 | > 100 | > 100 | > 100
COc1ccc(C2C(Cl)C(=O)N2NC(=O)c2ccc(N)cc2)cc1OC (stereo not given) | 4.45 | 30.3 | 35.2 | 19.9 | 5.64 | 22.6 | 24.7 | 5.16 | 38.3 | 51.8 | 3.75 | 19 | 34.8 | 9.04 | 26.6 | 17.6 | 33 | 24.5 | 30.5 | 25.7

— PubChem BioAssay (NCI)
